± gives the expanded uncertainty stated by the source.
Conditions: 101.33 kPa, Liquid; for speed of sound: Sing-around technique in a fixed-path interferometer; for mass density: Vibrating tube method

## CC(=O)[O-].C[NH2+]CCO [N-methyl-2-hydroxyethylammonium acetate]
278.15 K
  speed of sound: 1848.3 ± 2.2 m/s
  mass density: 1112.83 ± 2.2 kg/m3
278.4 K
  speed of sound: 1847.6 ± 2.2 m/s
  mass density: 1112.68 ± 2.2 kg/m3
278.65 K
  speed of sound: 1846.8 ± 2.2 m/s
  mass density: 1112.54 ± 2.2 kg/m3
278.9 K
  speed of sound: 1846.1 ± 2.2 m/s
  mass density: 1112.38 ± 2.2 kg/m3
279.15 K
  speed of sound: 1845.4 ± 2.2 m/s
  mass density: 1112.23 ± 2.2 kg/m3
279.4 K
  speed of sound: 1844.7 ± 2.2 m/s
  mass density: 1112.08 ± 2.2 kg/m3
279.65 K
  speed of sound: 1843.9 ± 2.2 m/s
  mass density: 1111.93 ± 2.2 kg/m3
279.9 K
  speed of sound: 1843.2 ± 2.2 m/s
  mass density: 1111.78 ± 2.2 kg/m3
280.15 K
  speed of sound: 1842.5 ± 2.2 m/s
  mass density: 1111.63 ± 2.2 kg/m3
280.4 K
  speed of sound: 1841.8 ± 2.2 m/s
  mass density: 1111.48 ± 2.2 kg/m3
280.65 K
  speed of sound: 1841 ± 2.2 m/s
  mass density: 1111.33 ± 2.2 kg/m3
280.9 K
  speed of sound: 1840.3 ± 2.2 m/s
  mass density: 1111.18 ± 2.2 kg/m3
281.15 K
  speed of sound: 1839.6 ± 2.2 m/s
  mass density: 1111.03 ± 2.2 kg/m3
281.4 K
  speed of sound: 1838.9 ± 2.2 m/s
  mass density: 1110.88 ± 2.2 kg/m3
281.65 K
  speed of sound: 1838.2 ± 2.2 m/s
  mass density: 1110.74 ± 2.2 kg/m3
281.9 K
  speed of sound: 1837.5 ± 2.2 m/s
  mass density: 1110.58 ± 2.2 kg/m3
282.15 K
  speed of sound: 1836.8 ± 2.2 m/s
  mass density: 1110.43 ± 2.2 kg/m3
282.4 K
  speed of sound: 1836.1 ± 2.2 m/s
  mass density: 1110.28 ± 2.2 kg/m3
282.65 K
  speed of sound: 1835.4 ± 2.2 m/s
  mass density: 1110.13 ± 2.2 kg/m3
282.9 K
  speed of sound: 1834.7 ± 2.2 m/s
  mass density: 1109.98 ± 2.2 kg/m3
283.15 K
  speed of sound: 1834 ± 2.2 m/s
  mass density: 1109.83 ± 2.2 kg/m3
283.4 K
  speed of sound: 1833.3 ± 2.2 m/s
  mass density: 1109.68 ± 2.2 kg/m3
283.65 K
  speed of sound: 1832.6 ± 2.2 m/s
  mass density: 1109.53 ± 2.2 kg/m3
283.9 K
  speed of sound: 1832 ± 2.2 m/s
  mass density: 1109.38 ± 2.2 kg/m3
284.15 K
  speed of sound: 1831.3 ± 2.2 m/s
  mass density: 1109.22 ± 2.2 kg/m3
284.4 K
  speed of sound: 1830.6 ± 2.2 m/s
  mass density: 1109.07 ± 2.2 kg/m3
284.65 K
  speed of sound: 1829.9 ± 2.2 m/s
  mass density: 1108.92 ± 2.2 kg/m3
284.9 K
  speed of sound: 1829.2 ± 2.2 m/s
  mass density: 1108.77 ± 2.2 kg/m3
285.15 K
  speed of sound: 1828.6 ± 2.2 m/s
  mass density: 1108.62 ± 2.2 kg/m3
285.4 K
  speed of sound: 1827.9 ± 2.2 m/s
  mass density: 1108.47 ± 2.2 kg/m3
285.65 K
  speed of sound: 1827.2 ± 2.2 m/s
  mass density: 1108.32 ± 2.2 kg/m3
285.9 K
  speed of sound: 1826.5 ± 2.2 m/s
  mass density: 1108.17 ± 2.2 kg/m3
286.15 K
  speed of sound: 1825.9 ± 2.2 m/s
  mass density: 1108.02 ± 2.2 kg/m3
286.4 K
  speed of sound: 1825.2 ± 2.2 m/s
  mass density: 1107.86 ± 2.2 kg/m3
286.65 K
  speed of sound: 1824.5 ± 2.2 m/s
  mass density: 1107.71 ± 2.2 kg/m3
286.9 K
  speed of sound: 1823.8 ± 2.2 m/s
  mass density: 1107.56 ± 2.2 kg/m3
287.15 K
  speed of sound: 1823.2 ± 2.2 m/s
  mass density: 1107.41 ± 2.2 kg/m3
287.4 K
  speed of sound: 1822.5 ± 2.2 m/s
  mass density: 1107.26 ± 2.2 kg/m3
287.65 K
  speed of sound: 1821.8 ± 2.2 m/s
  mass density: 1107.11 ± 2.2 kg/m3
287.9 K
  speed of sound: 1821.2 ± 2.2 m/s
  mass density: 1106.95 ± 2.2 kg/m3
288.15 K
  viscosity: 211.24 ± 21 mPa·s
  speed of sound: 1820.5 ± 2.2 m/s
  mass density: 1106.8 ± 2.2 kg/m3
288.4 K
  speed of sound: 1819.9 ± 2.2 m/s
  mass density: 1106.65 ± 2.2 kg/m3
288.65 K
  speed of sound: 1819.2 ± 2.2 m/s
  mass density: 1106.5 ± 2.2 kg/m3
288.9 K
  speed of sound: 1818.6 ± 2.2 m/s
  mass density: 1106.35 ± 2.2 kg/m3
289.15 K
  speed of sound: 1817.9 ± 2.2 m/s
  mass density: 1106.19 ± 2.2 kg/m3
289.4 K
  speed of sound: 1817.3 ± 2.2 m/s
  mass density: 1106.04 ± 2.2 kg/m3
289.65 K
  speed of sound: 1816.6 ± 2.2 m/s
  mass density: 1105.89 ± 2.2 kg/m3
289.9 K
  speed of sound: 1816 ± 2.2 m/s
  mass density: 1105.73 ± 2.2 kg/m3
290.15 K
  speed of sound: 1815.3 ± 2.2 m/s
  mass density: 1105.58 ± 2.2 kg/m3
290.4 K
  speed of sound: 1814.7 ± 2.2 m/s
  mass density: 1105.43 ± 2.2 kg/m3
290.65 K
  speed of sound: 1814 ± 2.2 m/s
  mass density: 1105.28 ± 2.2 kg/m3
290.9 K
  speed of sound: 1813.4 ± 2.2 m/s
  mass density: 1105.13 ± 2.2 kg/m3
291.15 K
  speed of sound: 1812.7 ± 2.2 m/s
  mass density: 1104.97 ± 2.2 kg/m3
291.4 K
  speed of sound: 1812.1 ± 2.2 m/s
  mass density: 1104.82 ± 2.2 kg/m3
291.65 K
  speed of sound: 1811.4 ± 2.2 m/s
  mass density: 1104.67 ± 2.2 kg/m3
291.9 K
  speed of sound: 1810.8 ± 2.2 m/s
  mass density: 1104.51 ± 2.2 kg/m3
292.15 K
  speed of sound: 1810.1 ± 2.2 m/s
  mass density: 1104.36 ± 2.2 kg/m3
292.4 K
  speed of sound: 1809.5 ± 2.2 m/s
  mass density: 1104.21 ± 2.2 kg/m3
292.65 K
  speed of sound: 1808.8 ± 2.2 m/s
  mass density: 1104.05 ± 2.2 kg/m3
292.9 K
  speed of sound: 1808.2 ± 2.2 m/s
  mass density: 1103.9 ± 2.2 kg/m3
293.15 K
  viscosity: 145.8 ± 11 mPa·s

Reference: the NIST ThermoML archive (doi:10.1021/je900550v)
